Source: patent US11667602B2, “Compounds and their use” (AstraZeneca AB, priority 2020, dated 2023)
Read-outs that look alike come from different tables or passages of the source.

Target: T1, human RXFP1 (Homo sapiens, UniProt Q9HBX9)
T1 sequence (Q9HBX9 1-757): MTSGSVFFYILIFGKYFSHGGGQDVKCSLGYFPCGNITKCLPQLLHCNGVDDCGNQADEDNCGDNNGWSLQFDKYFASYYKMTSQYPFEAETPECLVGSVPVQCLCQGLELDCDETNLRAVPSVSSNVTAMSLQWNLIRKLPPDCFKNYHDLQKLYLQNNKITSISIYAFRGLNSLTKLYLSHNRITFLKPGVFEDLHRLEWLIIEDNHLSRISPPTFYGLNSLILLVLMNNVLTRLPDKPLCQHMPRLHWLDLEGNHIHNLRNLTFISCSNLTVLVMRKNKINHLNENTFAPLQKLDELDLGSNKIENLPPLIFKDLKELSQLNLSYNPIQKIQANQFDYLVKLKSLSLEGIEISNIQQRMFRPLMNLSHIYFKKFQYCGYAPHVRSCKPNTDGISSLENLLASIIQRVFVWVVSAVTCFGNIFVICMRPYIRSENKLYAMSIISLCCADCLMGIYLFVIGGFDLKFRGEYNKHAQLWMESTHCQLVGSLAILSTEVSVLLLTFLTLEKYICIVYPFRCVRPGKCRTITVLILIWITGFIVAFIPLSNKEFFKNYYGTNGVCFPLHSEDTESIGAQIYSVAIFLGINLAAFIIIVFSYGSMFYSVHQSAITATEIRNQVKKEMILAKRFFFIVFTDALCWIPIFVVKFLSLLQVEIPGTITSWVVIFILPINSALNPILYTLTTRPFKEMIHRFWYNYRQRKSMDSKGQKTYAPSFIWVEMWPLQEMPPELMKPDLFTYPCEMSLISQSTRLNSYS
Assay: RXFP1 Hu cAMP (Test A)
Type: cell-based
Parameters: expressed in transfected cells; host or cells: Jump-In T-REx CHO-K1 cells (ThermoFisher), induced with 10 ng/ml doxycycline for 24 h
In short: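 Cells: CHO-K1 stably carrying human RXFP1, expressed after 24 h 10 ng/ml doxycycline; 0.5 mM IBMX final, HTRF detection after 2 h at room temperature.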

[1] = RXFP1 Hu cAMP, read-out: Test A EC50

Compound | Test A Sinf (RXFP1 Hu cAMP) [%] | EC50 [1] [nM] | EC50 (Test A EC50, RXFP1 Hu cAMP) [nM]
COc1cc(F)c(-c2ccc(C(=O)O)cc2)cc1C(=O)N[C@H]1[C@@H](C(=O)N[C@H]2CCCN(S(=O)(=O)C(F)(F)F)C2)[C@@H]2C=C[C@H]1C2 (racemic) [Example 311] | 67 | 7700 | 
COc1cc(C#N)c(O[C@H]2CC[C@@](C)(C(=O)O)CC2)cc1C(=O)N[C@@H]1[C@H]2CC[C@H](C2)[C@@H]1C(=O)NCCCOC(C)C [Example 122] | 71 | 1300 | 
COc1cc(F)c(O[C@H]2CC[C@@](C)(C(=O)O)CC2)cc1C(=O)N[C@@H]1[C@H]2CC[C@H](C2)[C@@H]1C(=O)N[C@@H](C)C(F)(F)F [Example 601] | 116 |  | 
(1R,4s)-4-(2-Fluoro-4-methoxy-5-(((3S*,4R*)-4-(neopentylcarbamoyl)tetrahydrofuran-3-yl)carbamoyl)phenoxy)-1-methylcyclohexane-1-carboxylic acid [Example 567] | 86 |  | 
COc1cc(C)c(O[C@H]2CC[C@@](C)(C(=O)O)CC2)cc1C(=O)N[C@@H]1[C@H]2CC[C@H](C2)[C@@H]1C(=O)NC12CC(F)(C1)C2 [Example 382] | 90 | 130 | 
COc1cc(F)c(OC2CCC(C(=O)O)CC2)cc1C(=O)N[C@H]1[C@@H](C(=O)Nc2cccc(S(=O)(=O)C(F)(F)F)c2)[C@@H]2C=C[C@H]1C2 (mixture of isomers) [Example 457] | 56 |  | 
COc1cc(F)c(-c2ccccc2C(=O)O)cc1C(=O)N[C@H]1[C@@H](C(=O)Nc2cccc(S(=O)(=O)C(F)(F)F)c2)[C@@H]2C=C[C@H]1C2 (racemic) [Example 273, rac-2′-Fluoro-4′-methoxy-5′-(((1R,2R,3S,4S)-3-((3-((trifluoromethyl)sulfonyl)phenyl)carbamoyl)bicyclo[2.2.1]hept-5-en-2-yl)carbamoyl)-[1,1′-biphenyl]-2-carboxylic acid] |  | > 40000 | 
COc1cc(F)c(O[C@H]2CC[C@@](C)(C(=O)O)CC2)cc1C(=O)N[C@@H]1CC[C@@H]1C(=O)Nc1ccc(F)c(S(F)(F)(F)(F)F)c1 (racemic) [Example 347] | 115 | 6.4 | 
COc1cc(F)c(O[C@H]2CC[C@@](C)(C(=O)O)CC2)cc1C(=O)N[C@@H]1[C@H]2CC[C@H](C2)[C@@H]1C(=O)N[C@@H](C)C(C)(C)C#N [Example 616] | 101 | 2000 | 
COc1cc(C#N)c(O[C@H]2CC[C@@](C)(C(=O)O)CC2)cc1C(=O)Nc1cc(C)ccc1C(=O)NCC1(C)CC1 [Example 174] | 132 | 110 | 
COc1cc(F)c(O[C@H]2CC[C@@](C)(C(=O)O)CC2)cc1C(=O)N[C@@H]1[C@H]2CC[C@H](C2)[C@@H]1C(=O)NC12CC(C1)C2 [Example 600] | 104 | 140 | 
COc1cc(C#N)c(O[C@H]2CC[C@@](C)(C(=O)O)CC2)cc1C(=O)N[C@@H]1[C@H]2CC[C@H](C2)[C@@H]1C(=O)N[C@@H](C)C(C)(C)C [Example 119] | 99 | 560 | 
CC1(CNC(=O)[C@H]2[C@@H]3CC[C@@H](C3)[C@H]2NC(=O)c2cc(O[C@H]3CC[C@@](C)(C(=O)O)CC3)cc3cccnc23)CCC1 [Example 407] | 99 | 260 | 
COc1cc(F)c(OCCCC(=O)O)cc1C(=O)N[C@H]1[C@@H](C(=O)Nc2cccc(S(=O)(=O)C(F)(F)F)c2)[C@@H]2C=C[C@H]1C2 (racemic) [Example 456] | 129 |  | 
COc1cc(F)c(O[C@H]2CC[C@H](S(N)(=O)=O)CC2)cc1C(=O)N[C@@H]1[C@@H]2CC[C@@H](C2)[C@@H]1C(=O)Nc1cccc(S(=O)(=O)C(F)(F)F)c1 [Example 462, (1S,2S,3R,4R)-3-(4-fluoro-2-methoxy-5-(((1r,4R)-4-sulfamoylcyclohexyl)oxy)benzamido)-N-(3-((trifluoromethyl)sulfonyl)phenyl)bicyclo[2.2.1]heptane-2-carboxamide] | 125 |  | 
COc1cc(C#N)c(O[C@H]2CC[C@@](C)(C(=O)O)CC2)cc1C(=O)Nc1cc(C)ccc1C(=O)NC12CC(C1)C2 [Example 173] | 126 | 190 | 
COc1cc(F)c(OC2CCC(CO)(C(=O)O)CC2)cc1C(=O)N[C@H]1[C@@H](C(=O)NCC2(C)CCC2)[C@H]2CC[C@@H]1O2 (relative stereo) [Example 533, (1R,4s)-4-(2-Fluoro-4-methoxy-5-(((1S*,2S*,3R*,4R*)-3-(((1-methylcyclobutyl)methyl)carbamoyl)-7-oxabicyclo[2.2.1]heptan-2-yl)carbamoyl)phenoxy)-1-(hydroxymethyl)cyclohexane-1-carboxylic acid] |  | > 40000 | 
COc1cc(C#N)c(O[C@H]2CC[C@@](C)(C(=O)O)CC2)cc1C(=O)N[C@@H]1[C@H]2CC[C@H](C2)[C@@H]1C(=O)NCC1CCOCC1 [Example 137] | 93 | > 2300 | 
COc1cc(F)c(-c2ccc(OCCCC(=O)O)cc2)cc1C(=O)N[C@@H]1[C@H]2CC[C@H](C2)[C@@H]1C(=O)Nc1cccc(S(=O)(=O)C(F)(F)F)c1 [Example 251, 4-((2′-Fluoro-4′-methoxy-5′-(((1S,2R,3S,4R)-3-((3-((trifluoromethyl)sulfonyl)phenyl)carbamoyl)bicyclo[2.2.1]heptan-2-yl)carbamoyl)-[1,1′-biphenyl]-4-yl)oxy)butanoic acid] | 101 | 33 | 
COc1cc(F)c(O[C@H]2CC[C@@](C)(C(=O)O)CC2)cc1C(=O)NC1CCC1C(=O)NCC(C)(C)C (single isomer, unassigned) [Example 568, (1R,4s)-4-(2-Fluoro-4-methoxy-5-(((1S*,2R*)-2-(neopentylcarbamoyl)cyclobutyl)carbamoyl)phenoxy)-1-methylcyclohexane-1-carboxylic acid] |  | > 40000 | 
COc1cc(F)c(O[C@H]2CC[C@@](O)(C(=O)O)CC2)cc1C(=O)N[C@@H]1[C@H]2CC[C@H](C2)[C@@H]1C(=O)NCC1(C)CCC1 [Example 507, (1R,4r)-4-(2-Fluoro-4-methoxy-5-(((1S,2R,3S,4R)-3-(((1-methylcyclobutyl)methyl)carbamoyl)bicyclo[2.2.1]heptan-2-yl)carbamoyl)phenoxy)-1-hydroxycyclohexane-1-carboxylic acid] | 118 | 540 | 
COc1cc(F)c(-c2cnc([C@@H]3C[C@H]3C(=O)O)cn2)cc1C(=O)N[C@@H]1[C@H]2CC[C@H](C2)[C@@H]1C(=O)Nc1cccc(S(=O)(=O)C(F)(F)F)c1 (single isomer, unassigned) [Example 264, (1R*,2R*)-2-(5-(2-Fluoro-4-methoxy-5-(((1S,2R,3S,4R)-3-((3-((trifluoromethyl)sulfonyl)phenyl)carbamoyl)bicyclo[2.2.1]heptan-2-yl)carbamoyl)phenyl)pyrazin-2-yl)cyclopropane-1-carboxylic acid] | 101 | 82 | 
COc1cc(F)c(O[C@H]2CC[C@@](C)(C(=O)O)CC2)cc1C(=O)N[C@@H]1[C@@H]2CC[C@@H](C2)[C@@H]1C(=O)NCC(C)(C)C [Example 370] | 102 |  | 24
COc1cc(F)c(-c2ccccc2CC(=O)O)cc1C(=O)N[C@H]1[C@@H](C(=O)Nc2cccc(S(=O)(=O)C(F)(F)F)c2)[C@@H]2C=C[C@H]1C2 (racemic) [Example 235] | 75 |  | 
COc1cc(F)c(-c2ccc(C(=O)O)cc2)cc1C(=O)N[C@@H]1[C@H]2CC[C@H](C2)[C@@H]1C(=O)NCC(C)(C)C [Example 304] | 95 |  | 
COc1cc(F)c(O[C@H]2CC[C@@](C)(C(=O)O)CC2)cc1C(=O)N[C@@H]1[C@H]2CC[C@H](C2)[C@@H]1C(=O)N[C@H](C)C(F)(F)F [Example 597] | 106 | 400 | 
COCc1cc(F)c(O[C@H]2CC[C@@](C)(C(=O)O)CC2)cc1C(=O)N[C@@H]1[C@H]2CC[C@H](C2)[C@@H]1C(=O)NCC1(C)CCC1 [Example 380] |  | > 2500 | 
COc1cc(F)c(-c2ccc(C(=O)O)cc2F)cc1C(=O)N[C@H]1[C@@H](C(=O)Nc2cccc(S(=O)(=O)C(F)(F)F)c2)[C@@H]2C=C[C@H]1C2 (racemic) [Example 227] | 102 | 420 | 
COc1c(F)cc(O[C@H]2CC[C@@](C)(C(=O)O)CC2)cc1C(=O)N[C@@H]1[C@H]2CC[C@H](C2)[C@@H]1C(=O)NC12CC(F)(C1)C2 [Example 390] | 95 | 180 | 
